Results as given in EP4745118A1, “HYDROXAMIC ACID COMPOUND OR PHARMACEUTICALLY ACCEPTABLE SALT THEREOF, AND USE THEREOF AND PREPARATION METHOD THEREFOR” (priority 2023, dated 2025).
In brackets after ≈: the same amount, converted by molar mass. Like-named read-outs stand apart in the source and are kept apart here.

What was measured:
Assay in all cases: In vitro antibacterial activity, agar dilution method (MIC)
Assay type in all cases: cell-based
[1] = test system: Pseudomonas aeruginosa; conditions: Pseudomonas aeruginosa PAO1, agar dilution, 35°C, 18 hours
Experimental: (§1) According to the relevant operating procedures of the Clinical Laboratory Standards Institute (CLSI) in the United States, an antimicrobial susceptibility testing was conducted using the agar dilution method. […]. The agar was allowed to solidify and set aside for later use.
(§2) The test bacteria were propagated in broth and adjusted to a turbidity of 0.5 McFarland (approximately 1-2 × 10^8 CFU/mL) using a turbidimeter before inoculation. The 0.5 McFarland bacterial solution was then diluted 10-fold in broth (approximately 1-2 × 10^7 CFU/mL). A multipoint inoculator was used to inoculate the above bacterial solution onto a series of plates containing different concentrations of drugs (with an inoculation amount of approximately 10^4 CFU per inoculation site). After incubation at a constant temperature of 35°C for 18 hours, results were observed. The minimum concentration of drugs contained in sterile growth plates was determined as the Minimal Inhibitory Concentration (MIC).

[2] = test system: Pantoea agglomerans; conditions: Pantoea agglomerans ATCC 27993, agar dilution, 35°C, 18 hours
Experimental: as §1, §2

[3] = test system: Proteus vulgaris; conditions: Proteus vulgaris ATCC 29905, agar dilution, 35°C, 18 hours
Experimental: as §1, §2

[4] = test system: Proteus mirabilis; conditions: Proteus mirabilis ATCC 49565, agar dilution, 35°C, 18 hours
Experimental: as §1, §2

[5] = test system: Citrobacter freundii; conditions: Citrobacter freundii ATCC 43864, agar dilution, 35°C, 18 hours
Experimental: as §1, §2

[6] = test system: Serratia marcescens; conditions: Serratia marcescens ATCC 21074, agar dilution, 35°C, 18 hours
Experimental: as §1, §2

[7] = test system: Escherichia coli; conditions: agar dilution, 35°C
Experimental: as §1, §2

[8] = test system: Enterobacter aerogenes; conditions: Enterobacter aerogenes ATCC 13048, agar dilution, 35°C, 18 hours
Experimental: as §1, §2

[9] = test system: Klebsiella pneumoniae; conditions: agar dilution, 35°C, 18 hours
Experimental: as §1, §2

[10] = test system: Shigella flexneri; conditions: 18 hours
Experimental: According to the relevant operating procedures of the Clinical Laboratory Standards Institute (CLSI) in the United States, an antimicrobial susceptibility testing was conducted using the agar dilution method. A 1920 µg/mL stock solution was serially diluted twofold with sterile water to obtain dilutions of 960, 480, 240, 120, 60, 30, 15, 7.5, 3.75, 1.88, 0.94, 0.47 µg/mL, and 1 mL of the dilution was taken respectively from the dilutions with different concentrations and added to a Petri dish, to which 14 mL of melted MH agar medium was added and mixed thoroughly, and the final concentration of the drug in the petri dish is 128, 64, 32, 16, 8, 4, 2, 1, 0.5, 0.25, 0.12, 0.06, and 0.03 µ g/mL, respectively. The agar was allowed to solidify and set aside for later use.
as §2

[11] = test system: Enterobacter cloacae; conditions: Enterobacter cloacae CDC1000654 (NDM-1-producing), agar dilution, 35°C, 18 hours
Experimental: According to the relevant operating procedures of the Clinical Laboratory Standards Institute (CLSI) in the United States, an antimicrobial susceptibility testing was conducted using the agar dilution method. […] The agar was allowed to solidify and set aside for later use.
as §2

[12] = Escherichia coli, 18 h, Escherichia coli 13-43 (mcr-1), 18 hours, read-out: MIC
[13] = Escherichia coli, 18 h, Escherichia coli 17-R28 (CRE, NDM-1-producing), 18 hours, read-out: MIC
[14] = Escherichia coli, ATCC2469, 18 h, Escherichia coli ATCC 2469 (CRE, NDM-1-producing), 18 hours, read-out: MIC
[15] = Escherichia coli, ATCC35218, 18 h, Escherichia coli ATCC 35218 (ESBLs-producing), 18 hours, read-out: MIC
[16] = Klebsiella aerogenes, ATCC13048, read-out: MIC
[17] = Klebsiella pneumoniae, 18 h, Klebsiella pneumoniae 09-20 (mcr-1), read-out: MIC
[18] = Klebsiella pneumoniae, 18 h, Klebsiella pneumoniae 17-R27 (CRE), read-out: MIC
[19] = Klebsiella pneumoniae, 18 h, Klebsiella pneumoniae 18-8 (ESBLs-producing), read-out: MIC
[20] = Klebsiella pneumoniae, ATCC700603, 18 h, Klebsiella pneumoniae ATCC 700603 (ESBLs-producing), read-out: MIC
[21] = Klebsiella pneumoniae, ATCCBAA2146, 18 h, Klebsiella pneumoniae ATCC BAA-2146 (CRE, NDM-1-producing)
[22] = ATCC12022, Shigella flexneri ATCC 12022, 35°C, read-out: MIC
[23] = Klebsiella pneumoniae, ATCCBAA2146, 18 h, Klebsiella pneumoniae ATCC BAA-2146 (CRE, NDM-1-producing), read-out: MIC
[24] = Escherichia coli, 18 h, Escherichia coli 17-R28 (CRE, NDM-1-producing)

C[C@H]1[C@H](NC(=O)/C(=N\OC(C)(C)C(=O)O)c2csc(N)n2)C(=O)N1S(=O)(=O)O [Aztreonam]
MIC ([1]; read-out: MIC): 4 µg/mL (≈ 9.19 µM)
MIC ([2]; ATCC27993, read-out: MIC): ≤ 0.03 µg/mL
MIC ([3]; ATCC29905, read-out: MIC): ≤ 0.03 µg/mL
MIC ([4]; ATCC49565, read-out: MIC): ≤ 0.03 µg/mL
MIC ([5]; ATCC43864, read-out: MIC): 0.12 µg/mL (≈ 0.276 µM)
MIC ([6]; ATCC21074, read-out: MIC): 0.12 µg/mL (≈ 0.276 µM)
MIC [7, 12]: 16 µg/mL (≈ 36.7 µM)
MIC [7, 13]: 8 µg/mL (≈ 18.4 µM)
MIC [7, 14]: 4 µg/mL (≈ 9.19 µM)
MIC [7, 15]: ≤ 0.03 µg/mL
MIC [8, 16]: 0.12 µg/mL (≈ 0.276 µM)
MIC [9, 17]: 0.25 µg/mL (≈ 0.574 µM)
MIC [9, 18]: 0.25 µg/mL (≈ 0.574 µM)
MIC [9, 19]: 1 µg/mL (≈ 2.3 µM)
MIC [9, 20]: 16 µg/mL (≈ 36.7 µM)
MIC [9, 21]: > 128 µg/mL
MIC [10, 22]: 0.06 µg/mL (≈ 0.138 µM)

C[C@@H](O)[C@H]1C(=O)N2C(C(=O)O)=C(SCCN=CN)C[C@H]12 [Imipenem]
MIC ([2]; ATCC27993, read-out: MIC): 0.12 µg/mL (≈ 0.401 µM)
MIC ([3]; ATCC29905, read-out: MIC): 0.25 µg/mL (≈ 0.835 µM)
MIC ([4]; ATCC49565, read-out: MIC): 1 µg/mL (≈ 3.34 µM)
MIC ([5]; ATCC43864, read-out: MIC): 0.25 µg/mL (≈ 0.835 µM)
MIC ([6]; ATCC21074, read-out: MIC): 0.5 µg/mL (≈ 1.67 µM)
MIC [7, 12]: 0.12 µg/mL (≈ 0.401 µM)
MIC [7, 13]: > 128 µg/mL
MIC [7, 14]: 8 µg/mL (≈ 26.7 µM)
MIC [7, 15]: 0.12 µg/mL (≈ 0.401 µM)
MIC [8, 16]: 0.25 µg/mL (≈ 0.835 µM)
MIC [9, 17]: 0.12 µg/mL (≈ 0.401 µM)
MIC [9, 18]: 0.12 µg/mL (≈ 0.401 µM)
MIC [9, 19]: 0.12 µg/mL (≈ 0.401 µM)
MIC [9, 20]: 0.25 µg/mL (≈ 0.835 µM)
MIC [9, 23]: 32 µg/mL (≈ 107 µM)
MIC ([11]; read-out: MIC): 2 µg/mL (≈ 6.68 µM)
MIC [10, 22]: 0.12 µg/mL (≈ 0.401 µM)

Polymyxin B
MIC [1]: 2 µg/mL
MIC [2]: 1 µg/mL
MIC [3]: >128 µg/mL
MIC [4]: >128 µg/mL
MIC [5]: 2 µg/mL
MIC [6]: >128 µg/mL
MIC ([7]; Escherichia coli 13-43 (mcr-1), 18 hours): 8 µg/mL
MIC ([7]; Escherichia coli 17-R28 (CRE, NDM-1-producing), 18 hours): 0.5 µg/mL
MIC ([7]; Escherichia coli ATCC 2469 (CRE, NDM-1-producing), 18 hours): 1 µg/mL
MIC ([7]; Escherichia coli ATCC 35218 (ESBLs-producing), 18 hours): 0.5 µg/mL
MIC [8]: 1 µg/mL
MIC ([9]; Klebsiella pneumoniae 09-20 (mcr-1)): 16 µg/mL
MIC ([9]; Klebsiella pneumoniae 17-R27 (CRE)): 16 µg/mL
MIC ([9]; Klebsiella pneumoniae 18-8 (ESBLs-producing)): 1 µg/mL
MIC ([9]; Klebsiella pneumoniae ATCC 700603 (ESBLs-producing)): 1 µg/mL
MIC ([9]; Klebsiella pneumoniae ATCC BAA-2146 (CRE, NDM-1-producing)): 1 µg/mL
MIC [11]: 2 µg/mL
MIC ([10]; Shigella flexneri ATCC 12022, 35°C): 1 µg/mL

C[C@@H](O)[C@H]1C(=O)N2C(C(=O)O)=C(S[C@@H]3CN[C@H](C(=O)N(C)C)C3)[C@H](C)[C@H]12 [Meropenem]
MIC ([1]; read-out: MIC): 2 µg/mL (≈ 5.22 µM)
MIC ([2]; ATCC27993, read-out: MIC): ≤ 0.03 µg/mL
MIC ([3]; ATCC29905, read-out: MIC): ≤ 0.03 µg/mL
MIC ([4]; ATCC49565, read-out: MIC): 0.06 µg/mL (≈ 0.156 µM)
MIC ([5]; ATCC43864, read-out: MIC): ≤ 0.03 µg/mL
MIC ([6]; ATCC21074, read-out: MIC): 0.06 µg/mL (≈ 0.156 µM)
MIC [7, 12]: ≤ 0.03 µg/mL
MIC [7, 24]: 128 µg/mL (≈ 334 µM)
MIC [7, 14]: 8 µg/mL (≈ 20.9 µM)
MIC [7, 15]: ≤ 0.03 µg/mL
MIC [8, 16]: 0.06 µg/mL (≈ 0.156 µM)
MIC [9, 17]: ≤ 0.03 µg/mL
MIC [9, 18]: 0.25 µg/mL (≈ 0.652 µM)
MIC [9, 19]: ≤ 0.03 µg/mL
MIC [9, 20]: ≤ 0.03 µg/mL
MIC [9, 23]: 32 µg/mL (≈ 83.4 µM)
MIC ([11]; read-out: MIC): 4 µg/mL (≈ 10.4 µM)
MIC [10, 22]: ≤ 0.03 µg/mL

CO/N=C(\C(=O)N[C@@H]1C(=O)N2C(C(=O)[O-])=C(C[N+]3(C)CCCC3)CS[C@H]12)c1csc(N)n1 [Cefepime]
MIC ([1]; read-out: MIC): 2 µg/mL (≈ 4.16 µM)
MIC ([2]; ATCC27993, read-out: MIC): 0.06 µg/mL (≈ 0.125 µM)
MIC ([3]; ATCC29905, read-out: MIC): ≤ 0.03 µg/mL
MIC ([4]; ATCC49565, read-out: MIC): 0.06 µg/mL (≈ 0.125 µM)
MIC ([5]; ATCC43864, read-out: MIC): ≤ 0.03 µg/mL
MIC ([6]; ATCC21074, read-out: MIC): 0.06 µg/mL (≈ 0.125 µM)
MIC [7, 12]: 2 µg/mL (≈ 4.16 µM)
MIC [7, 24]: > 128 µg/mL
MIC [7, 14]: 64 µg/mL (≈ 133 µM)
MIC [7, 15]: ≤ 0.03 µg/mL
MIC [8, 16]: 0.06 µg/mL (≈ 0.125 µM)
MIC [9, 17]: 1 µg/mL (≈ 2.08 µM)
MIC [9, 18]: 0.5 µg/mL (≈ 1.04 µM)
MIC [9, 19]: 1 µg/mL (≈ 2.08 µM)
MIC [9, 20]: 1 µg/mL (≈ 2.08 µM)
MIC [9, 21]: 128 µg/mL (≈ 266 µM)
MIC [10, 22]: ≤ 0.03 µg/mL
